Results published in patent US20220033431A1, “Cyclic Di-Nucleotide Compounds as STING Agonists” (Merck Sharp & Dohme Corp., priority 2018, published 2022).
Where two headings read alike, the source gives them in different places.

Key:
full-length HAQ STING = molecular target: T1, full-length HAQ STING (Homo sapiens, UniProt Q86WV6, G230A/H232R/R293Q/R71H); assay: 3H-cGAMP filtration binding assay (HAQ STING); details: 3H-cGAMP filtration binding assay for HAQ STING; competition with tritiated cGAMP
T1 construct: Full-Length HAQ STING [STING(1-379)R71H, G230A, H232R,; made in house; host or cells: Trichoplusia ni insect cells (baculovirus made in Sf21); membrane preparation
T1 sequence (Q86WV6 with tags, fused parts or gaps R71H/G230A/H232R/R293Q): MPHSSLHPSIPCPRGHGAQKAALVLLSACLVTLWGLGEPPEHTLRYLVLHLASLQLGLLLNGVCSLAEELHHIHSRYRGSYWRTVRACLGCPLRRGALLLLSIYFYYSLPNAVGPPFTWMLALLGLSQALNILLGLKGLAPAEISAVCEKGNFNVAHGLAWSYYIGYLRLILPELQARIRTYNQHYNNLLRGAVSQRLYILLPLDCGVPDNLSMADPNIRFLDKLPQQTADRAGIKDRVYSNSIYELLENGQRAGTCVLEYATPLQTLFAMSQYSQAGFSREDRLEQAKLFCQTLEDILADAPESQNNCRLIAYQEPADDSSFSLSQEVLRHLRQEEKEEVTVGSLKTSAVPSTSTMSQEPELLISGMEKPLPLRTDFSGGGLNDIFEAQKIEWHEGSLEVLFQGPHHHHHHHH
Description: The ability of compounds to bind STING is quantified by their ability to compete with tritiated cGAMP ligand for human STING receptor membrane using a radioactive filter-binding assay. The binding assay employs STING receptor obtained from Trichoplusia ni cell membranes (T.ni; Expression Systems, cat #94-002F, www.expressionsystems.com) overexpressing full-length HAQ STING and tritiated cGAMP ligand.
The basic HAQ STING filtration assay protocol is as follows:
Compound and membrane then preincubated for 60 min at RT to allow compound binding to equilibrate. Following equilibration, 8 nM of [^3H]c-GAMP ligand was prepared by diluting into assay buffer, and 50 uL of this working stock was then manually added to each well of the assay plate. […] The filter plates were then dried at 55° C. for 30 min using a pressurized oven before 30 uL of ULTIMA GOLD F scintillate was added to each well. Tritium levels for each reaction well were then measured using a PerkinElmer TopCount plate reader.
After normalization to controls, the percent activity for each compound concentration was calculated by measuring the amount of remaining radioactivity. The plot of percent activity versus the log of compound concentration was fit with a 4-parameter dose response equation to calculate EC50 values.

THP1 cells = assay: IFN-β secretion in THP1 cell culture (5 h); assay type: cell-based, human; details: 30 uM cGAMP = 100%; for activation at 30 µM: Homo sapiens, THP-1, 5 h
Protocol: The ability of compounds to stimulate the secretion of interferon-beta from THP1 cells was measured using a human IFN-β AlphaLISA kit (Perkin Elmer, Cat. No. AL265F). The basic protocol is as follows:
A Labcyte Echo 550 acoustic dispenser was used to transfer 120 nL of compound dissolved in DMSO into the wells of an empty, sterile 384-well microplate, (Corning, Cat. No. 3712). THP1 cells (American Type Culture Collection, Cat. No. TIB202) previously frozen in Recovery Medium (Life Technologies, Cat. No. 12648-010) were thawed and immediately diluted 10-fold into 37° C. assay medium (RPMI 1640+L-Glutamine & phenol red, Life Technologies, Cat. No. 11875-085; 0.5% heat inactivated fetal bovine serum, Sigma Aldrich, Cat. No. F4135; 1 mM Sodium Pyruvate, Life Technologies, Cat. No. 11360-070; lx non essential amino acids; Life Technologies, Cat. No. 11140-050). The cell viability and count was ascertained using a Beckman Coulter V-Cell XR cell counter. The cell suspension was centrifuged at 200×g for 5 min at RT. Cells were resuspended to a density of 0.8×10^6/mL in 37° C. assay medium. Subsequent liquid transfers were performed using either a Matrix electronic multichannel pipette or an Agilent Bravo Automated Liquid Handling Platform.
The assay was started by dispensing 40 μL of the previously prepared cell suspension into the wells of the plate containing compounds. After 5 h incubation at 37° C., 5% CO2 in a humidified atmosphere, the plate of cells and compounds was centrifuged at 200×g for 5 min at RT. From each well, […] of supernatant was transferred into corresponding wells of a white 384-well plate (Perkin Elmer, Cat. No. 6005620). To these supernatant-containing wells was added 10 μL of 5× Anti-Analyte Acceptor beads (50 μg/mL of AlphaLISA HiBlock Buffer) and incubated for 30 min at RT while shaking on an orbital plate shaker. To each well was added 10 μL of 5× Biotinylated Antibody Anti-analyte (5 nM in AlphaLISA HiBlock Buffer) and incubated on an orbital plate shaker for 60 min at RT or overnight at 4° C. To each well was added 25 μL of 2× SA-Donor beads ([…] in AlphaLISA HiBlock Buffer) and incubated for 30-45 min at RT in the dark while shaking on an orbital plate shaker. The plate was then read on a Perkin Elmer Envision (λex=680 nm, λem=[…]). The percent effect of the AlphaLISA signal at each compound concentration was calculated based on 30 uM cGAMP positive controls and 0.3% DMSO negative controls. The plot of percent effect versus the log of compound concentration was fit with a 4-parameter concentration response equation to calculate EC50 values. The test compounds were tested at concentrations 30000, 10000, 3333, 1111, 370.4, 123.4, 41.2, 13.7, 4.6, and 1.5 nM with 0.3% residual DMSO. The control compound, cGAMP was tested at concentrations 100000, 33333, 11111, 3704, 1235, 412, 137, 46, and 15 nM with 0.3% residual DMSO.
Compounds of the disclosure were evaluated for IFN-β secretion in THP1 cell culture as described above. The following table tabulates the biological data for these compounds as percent activation relative to 2′3′-cGAMP at the 30 μM concentration.

[1] = IFN-β secretion, THP1 cells, 5 h, 30 μM
[2] = IFN-β secretion, THP1 cells, 5 h, 30 μM, read-out: % Effect at 30 μM relative to 2′3′-cGAMP

| EC50 (full-length HAQ STING) [nM] | SMILES | % Effect at 30 μM relative to 2′3′-cGAMP (THP1 cells; [1]) [%] | activation at 30 µM (THP1 cells; [2]) [%] | activation at 30 µM (THP1 cells; read-out: % Effect at 30 μM relative to 2′3′-cGAMP, IFN-β secretion, THP1 cells, 5 h, 30 μM) [%] |
| --- | --- | --- | --- | --- |
| 1130 | Nc1nc2c(ncn2[C@@H]2O[C@@H]3COP(=O)(S)O[C@H]4[C@H](F)[C@H](n5nnc6c(N)ncnc65)O[C@@H]4COP(=O)(S)O[C@H]2[C@@H]3O)c(=O)[nH]1 (single isomer, unassigned) [Example 2] | 29 | – | – |
| 26 | Nc1nc2c(ncn2[C@@H]2O[C@@H]3COP(=O)(S)O[C@H]4[C@H](F)[C@H](n5nnc6c(N)ncnc65)O[C@@H]4COP(=O)(S)O[C@H]2C3)c(=O)[nH]1 (single isomer, unassigned) [Example 8] | 145 | – | – |
| 241 | Nc1nc2c(ncn2[C@@H]2O[C@@H]3COP(=O)(S)O[C@H]4[C@H](F)[C@H](n5nnc6c(N)ncnc65)O[C@@H]4COP(=O)(S)O[C@H]2C3)c(=O)[nH]1 (single isomer, unassigned) [Example 6] | 60 | – | – |
| – | Nc1nc2c(ncn2[C@@H]2O[C@@H]3COP(=O)(S)O[C@H]4[C@H]5OC[C@]4(COP(=O)(S)O[C@H]2[C@@H]3O)O[C@H]5n2cnc3c(N)ncnc32)c(=O)[nH]1 (single isomer, unassigned) [Example 5] | – | 113 | – |
| – | Nc1nc2c(ncn2[C@@H]2O[C@@H]3COP(=O)(S)O[C@H]4[C@H](F)[C@H](n5cnc6c(N)ncnc65)O[C@@H]4COP(=O)(S)O[C@H]2[C@@H]3F)c(=O)[nH]1 (single isomer, unassigned) [Example 17] | 141 | – | – |
| – | Nc1nc2c(ncn2[C@@H]2O[C@@H]3COP(=O)(S)O[C@H]4[C@H](F)[C@H](n5cnc6c(N)ncnc65)O[C@@H]4COP(=O)(S)O[C@H]2[C@@H]3F)c(=O)[nH]1 (single isomer, unassigned) [Example 15] | 31 | – | – |
| – | Nc1nc2c(nnn2[C@@H]2O[C@@H]3COP(=O)(S)O[C@H]4[C@H](F)[C@H](n5nnc6c(N)ncnc65)O[C@@H]4COP(=O)(S)O[C@H]2[C@@H]3F)c(=O)[nH]1 (stereo partly drawn) [Example 24, 5-amino-3-[(5R,7R,8R,12aR,14R,15S,15aR,16R)-14-(7-amino-3H-[1,2,3]triazolo[4,5-d]pyrimidin-3-yl)-15,16-difluoro-2,10-dioxido-2,10-disulfanyloctahydro-12H-5,8-methanofuro[3,2-1][1,3,6,9,11,2,10]pentaoxadiphosphacyclotetradecin-7-yl]-3,6-dihydro-7H-[1,2,3]triazolo[4,5-d]pyrimidin-7-one] | – | – | 129 |
| – | Nc1nc2c(ncn2[C@@H]2O[C@@H]3COP(=O)(S)O[C@H]4[C@H]5OC[C@]4(COP(=O)(S)O[C@H]2[C@@H]3O)O[C@H]5n2cnc3c(N)ncnc32)c(=O)[nH]1 (single isomer, unassigned) [Example 4] | 113 | – | – |
| 3670 | Nc1nc2c(ncn2[C@@H]2O[C@@H]3COP(=O)(S)O[C@H]4[C@H](F)[C@H](n5nnc6c(N)ncnc65)O[C@@H]4COP(=O)(S)O[C@H]2C3)c(=O)[nH]1 (single isomer, unassigned) [Example 7] | 15 | – | – |
| – | Nc1nc2c(ncn2[C@@H]2O[C@@H]3COP(=O)(O)O[C@H]4[C@H](F)[C@H](n5cnc6c(N)ncnc65)O[C@@H]4COP(=O)(S)O[C@H]2[C@@H]3F)c(=O)[nH]1 (single isomer, unassigned) [Example 13] | 79 | – | – |
| 1140 | Nc1nc2c(ncn2[C@@H]2O[C@@H]3COP(=O)(S)O[C@H]4[C@H](F)[C@H](n5nnc6c(N)ncnc65)O[C@@H]4COP(=O)(S)O[C@H]2[C@@H]3O)c(=O)[nH]1 (single isomer, unassigned) [Example 1] | 24 | – | – |
| 99.9 | Nc1nc2c(nnn2[C@@H]2O[C@@H]3COP(=O)(S)O[C@H]4C[C@H](n5ccc6c(N)ncnc65)O[C@@H]4COP(=O)(S)O[C@H]2[C@@H]3F)c(=O)[nH]1 (single isomer, unassigned) [Example 25] | – | 92 | – |
| 51.3 | Nc1nc2c(ncn2[C@@H]2O[C@@H]3COP(=O)(S)O[C@H]4[C@H](F)[C@H](n5nnc6c(N)ncnc65)O[C@@H]4COP(=O)(S)O[C@H]2[C@@H]3O)c(=O)[nH]1 (single isomer, unassigned) [Example 3] | 128 | – | – |
| – | Nc1nc2c(nnn2[C@@H]2O[C@@H]3COP(=O)(S)O[C@H]4C[C@H](n5ccc6c(N)ncnc65)O[C@@H]4COP(=O)(S)O[C@H]2C3)c(=O)[nH]1 (single isomer, unassigned) [Example 22] | – | 69 | – |
| – | Nc1nc2c(ncn2[C@@H]2O[C@@H]3COP(=O)(S)O[C@H]4[C@H](F)[C@H](n5cnc6c(N)ncnc65)O[C@@H]4COP(=O)(S)O[C@H]2[C@@H]3F)c(=O)[nH]1 (single isomer, unassigned) [Example 16] | 188 | – | – |
| 5.62 | Nc1nc2c(nnn2[C@@H]2O[C@@H]3COP(=O)(S)O[C@H]4C[C@H](n5ccc6c(N)ncnc65)O[C@@H]4COP(=O)(S)O[C@H]2[C@@H]3F)c(=O)[nH]1 (single isomer, unassigned) [Example 26] | 79 | – | – |
| – | Nc1nc2c(ncn2[C@@H]2O[C@@H]3COP(=O)(O)O[C@H]4[C@H](F)[C@H](n5cnc6c(N)ncnc65)O[C@@H]4COP(=O)(S)O[C@H]2[C@@H]3F)c(=O)[nH]1 (single isomer, unassigned) [Example 14] | 257 | – | – |
